Values quoted from earlier work, collected in patent US20250177316A1, “Delayed-Release Granulates of Melatonin, Combinations Comprising Melatonin, Pharmaceutical Compositions and Dietary Supplements Containing Them, and Their Use in the Treatment of Insomnia and for the Reduction of the Time Required to Fall Asleep” (S.I.I.T. S.R.L. - SERVIZIO INTERNAZIONALE IMBALLAGGI …, priority 2022, published 2025).

| SMILES | pH of 5% solution in water |
| --- | --- |
| CC(O)C(=O)[O-].CC(O)C(=O)[O-].[Ca+2] (centres unmarked) [calcium lactate] | 6-8 |
| CC(O)C(=O)[O-].CC(O)C(=O)[O-].[Mg+2] (centres unmarked) [magnesium lactate] | 6.5-8.5 |
